How the values were obtained:
Settings in all cases: incubation time: 72 h
CAL-51 [1] = test: normalised response (% of control), CellTiter-Glo; higher = more viable cells (100 = DMSO, 0 = benzethonium chloride kill control)
Description: (§1)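 DSRT, 72 h incubation, CellTox Green / CellTiter-Glo readout. Signal is normalised to DMSO and benzethonium chloride controls. Value is the normalised response at the highest dose.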

MDA-MB-436 [2] = test: as above
Description: as §1

MFM-223 [3] = test: as above
Description: as §1

BT-549 [4] = test: as above
Description: as §1

CAL-85-1 [5] = test: as above
Description: as §1

CAL-148 [6] = test: as above
Description: as §1

MDA-MB-231 [7] = test: as above
Description: as §1

HCC1599 [8] = test: as above
Description: as §1

SK-BR-3 = test: as above
Description: as §1

MDA-MB-453 [9] = test: as above
Description: as §1

HCC1937 [10] = test: as above
Description: as §1

BT-474 [11] = test: as above
Description: as §1

MDA-MB-468 [12] = test: as above
Description: as §1

Hs578T [13] = test: as above
Description: as §1

HCC1143 [14] = test: as above
Description: as §1

MCF-10A [15] = test: as above
Description: as §1

CAL-120 [16] = test: as above
Description: as §1

DU-4475 [17] = test: as above
Description: as §1

HDQ-P1 [18] = test: as above
Description: as §1

CAL-51 [19] = test: normalised response (% of control), CellTox Green; higher = less cell death (100 = DMSO, 0 = benzethonium chloride kill control)
In short: (§2)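 Two readouts were taken after 72 h: CellTox Green fluorescence (485/520 nm) first, then CellTiter-Glo luminescence after 10 min at room temperature. Breast cancer cell lines had been seeded as 20 µl suspension into 384-well plates holding compound at 5 concentrations in 10-fold steps across a compound-specific 10,000-fold range. Each value is a normalised signal at a single concentration, with plates scaled to 0.1 % DMSO (100) and a positive kill control (0).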

MDA-MB-436 [20] = test: as above
In short: as §2

MFM-223 [21] = test: as above
In short: as §2

BT-549 [22] = test: as above
In short: as §2

CAL-85-1 [23] = test: as above
In short: as §2

CAL-148 [24] = test: as above
In short: as §2

MDA-MB-231 [25] = test: as above
In short: as §2

HCC1599 [26] = test: as above
In short: as §2

MDA-MB-453 [27] = test: as above
In short: as §2

HCC1937 [28] = test: as above
In short: as §2

BT-474 [29] = test: as above
In short: as §2

MDA-MB-468 [30] = test: as above
In short: as §2

Hs578T [31] = test: as above
In short: as §2

HCC1143 [32] = test: as above
In short: as §2

MCF-10A [33] = test: as above
In short: as §2

CAL-120 [34] = test: as above
In short: as §2

DU-4475 [35] = test: as above
In short: as §2

HDQ-P1 [36] = test: as above
In short: as §2

SMILES | normalised response (CAL-51 [1]) [%] | normalised response (MDA-MB-436 [2]) [%] | normalised response (MFM-223 [3]) [%] | normalised response (BT-549 [4]) [%] | normalised response (CAL-85-1 [5]) [%] | normalised response (CAL-148 [6]) [%] | normalised response (MDA-MB-231 [7]) [%] | normalised response (HCC1599 [8]) [%] | normalised response (SK-BR-3) [%] | normalised response (MDA-MB-453 [9]) [%] | normalised response (HCC1937 [10]) [%] | normalised response (BT-474 [11]) [%] | normalised response (MDA-MB-468 [12]) [%] | normalised response (Hs578T [13]) [%] | normalised response (HCC1143 [14]) [%] | normalised response (MCF-10A [15]) [%] | normalised response (CAL-120 [16]) [%] | normalised response (DU-4475 [17]) [%] | normalised response (HDQ-P1 [18]) [%] | normalised response (CAL-51 [19]) [%] | normalised response (MDA-MB-436 [20]) [%] | normalised response (MFM-223 [21]) [%] | normalised response (BT-549 [22]) [%] | normalised response (CAL-85-1 [23]) [%] | normalised response (CAL-148 [24]) [%] | normalised response (MDA-MB-231 [25]) [%] | normalised response (HCC1599 [26]) [%] | normalised response (MDA-MB-453 [27]) [%] | normalised response (HCC1937 [28]) [%] | normalised response (BT-474 [29]) [%] | normalised response (MDA-MB-468 [30]) [%] | normalised response (Hs578T [31]) [%] | normalised response (HCC1143 [32]) [%] | normalised response (MCF-10A [33]) [%] | normalised response (CAL-120 [34]) [%] | normalised response (DU-4475 [35]) [%] | normalised response (HDQ-P1 [36]) [%]
CN(c1ccccc1CNc1nc(Nc2ccc3c(c2)CC(=O)N3)ncc1C(F)(F)F)S(C)(=O)=O (10000 nM) | 5.46 | 18.9 | 48.2 | 6.21 | 4.6 | 73 | 4.8 | 8.88 | 21.6 | 56.4 | 34.6 | 18.1 | 7.14 | 23.9 | 17.8 | 9.01 | 45.7 | 2.4 | 16.5 | 16.1 | 92.8 | 92.2 | 52.9 | 11.5 | 58.1 | -15.1 | 60.9 | 105 | 51.5 | 84.8 | 110 | -25.4 | 70.8 | 7.39 | 89.1 | 64.2 | 68.7
COC(=O)C[C@](O)(CCCC(C)(C)O)C(=O)O[C@@H]1C(OC)=C[C@]23CCCN2CCc2cc4c(cc2[C@H]13)OCO4 [Omacetaxine] (10000 nM) | 6.4 | 17.4 | 3.94 | 2.75 | 1.11 | 26.6 | 2.58 | 6.51 | 1.19 | 24.6 | 17.7 | 5.49 | 4.57 | 1.02 | 10.8 | 1.54 | 21.7 | 10.2 | 21.1 | 94.3 | 32.1 | 30.1 | 77 | -46.3 | 1.18 | 48.4 | 88.5 | 98.8 | 107 | 75.2 | 84.9 | 33.9 | 74.8 | -13.6 | 80.1 | 98.5 | 64.9
COc1cc(Nc2ncc(F)c(Nc3ccc4c(n3)NC(=O)C(C)(C)O4)n2)cc(OC)c1OC [Tamatinib] (10000 nM) | 74.1 | 95.7 | 110 | 67.4 | 97.5 | 109 | 103 | 91.6 | 109 | 112 | 97.5 | 95.6 | 71.2 | 102 | 101 | 107 | 94.9 | 107 | 100 | 83.7 | 94.9 | 94.1 | 95 | 64.4 | 65.1 | 108 | 106 | 103 | 97 | 103 | -90.8 | 104 | 115 | 103 | 100 | 99 | 111
C[C@@H]1CCN(C(=O)CC#N)C[C@@H]1N(C)c1ncnc2[nH]ccc12 [Tofacitinib] (5000 nM) | 76.6 | 110 | 104 | 105 | 109 | 109 | 114 | 106 | 106 | 105 | 100 | 98.2 | 105 | 101 | 102 | 97.2 | 99.8 | 99.4 | 102 | 89.2 | 113 | 103 | 120 | 63.8 | 101 | 124 | 114 | 110 | 111 | 102 | 142 | 126 | 117 | 105 | 103 | 108 | 113
CCCC(CCC)C(=O)O [Valproic acid] (1000000 nM) | 87.6 | 100 | 96.3 | 106 | 96.7 | 88.4 | 98.6 | 98.2 | 99.1 | 81.2 | 100 | 100 | 97.8 | 99 | 106 | 94.6 | 103 | 89.9 | 103 | 98.4 | 106 | 99.5 | 111 | 97.4 | 95.9 | 98.7 | 93.9 | 102 | 88.4 | 105 | 126 | 129 | 111 | 119 | 111 | 97 | 107
FC(F)c1nc2ccccc2n1-c1nc(N2CCOCC2)nc(N2CCOCC2)n1 [ZSTK474] (10000 nM) | 16.4 | 40.6 | 29.5 | 21.2 | 20.2 | 38.7 | 43.8 | 71.7 | 22.4 | 15.9 | 39.1 | 44.8 | 36.6 | 25.9 | 37.9 | 26.2 | 34.6 | 67.5 | 33 | 70.5 | 84.2 | 84.7 | 73.5 | 82.4 | 68.1 | 97.6 | 88.4 | 99.1 | 86.7 | 86.6 | 157 | 101 | 90.3 | 106 | 98.6 | 96.3 | 99.7

— the supplement of paper PMC4862054
